ChEMBL document CHEMBL6078659, “Comprehensive Insights into the Development of Antitoxoplasmosis Drugs: Current Advances, Obstacles, and Future Perspectives” (J Med Chem, 2024)
In brackets after ≈: the same amount, converted by molar mass.

Tested on: Toxoplasma gondii
Assay: Antiparasitic activity against Toxoplasma gondii RH infected in human HFF cells assessed as reduction in parasitic growth
Type: functional, organism-based
Details: not given

Q: Which IC50 does the source give for `Cn1cc(-c2ccc3c(c2)CCN3C(=O)Cc2cccc(C(F)(F)F)c2)c2c(N)ncnc21` here?
A: < 1000 nM

Q: For `N=C(N)N/N=C/c1c(Cl)cccc1Cl` [GUANABENZ], which IC50 is on record?
A: 6000 nM

Tested on: Toxoplasma gondii
Assay: Antiparasitic activity against Toxoplasma gondii
Type: functional, organism-based
Details: not given

Q: Which IC50 does the source give for `NC(=S)N/N=C(/COc1ccc(F)cc1)c1ccc(Cl)cc1` here?
A: 1190 nM

Q: With `COc1ccc(/C(COc2ccc(F)cc2)=N\NC(N)=S)cc1` as the compound, how does the IC50 read?
A: 1090 nM

Tested on: Toxoplasma gondii
Assay: Antiparasitic activity against Toxoplasma gondii RH infected in human HFF cells
Type: functional, organism-based
Details: not given

Q: For `Fc1ccc(-c2csc(N/N=C/C3CC3)n2)cc1`, which IC50 is on record?
A: 18.1 µg/mL (≈ 69.2 µM)

Tested on: not listed separately
Assay: Cytotoxicity against African green monkey Vero cells by MTT assay
Type: toxicity, cell-based
Details: African green monkey (Chlorocebus sabaeus)

Q: With `C/C(=N\Nc1nc(-c2ccc(Cl)c(Cl)c2)cs1)c1ccc(Nc2nc(N)nc(N)n2)cc1` as the compound, how does the IC50 read?
A: 14.9 µg/mL

Q: Which IC50 does the source give for `NC(=S)N/N=C(/COc1ccc(F)cc1)c1ccc(Cl)cc1` here?
A: 1190 nM

Q: With `Fc1ccc(-c2csc(N/N=C/C3CC3)n2)cc1` as the compound, how does the IC50 read?
A: 18 µg/mL

Q: With `COc1ccc(/C(COc2ccc(F)cc2)=N\NC(N)=S)cc1` as the compound, how does the IC50 read?
A: 1090 nM

Tested on: not listed separately
Assay: Inhibition of Toxoplasma gondii Farnesyl pyrophosphate synthase
Details: not given

Q: With `CCCCCCNCC(O)(P(=O)(O)O)P(=O)(O)O` as the compound, how does the IC50 read?
A: 4700 nM

Q: With `O=C(CCCCSc1nc(-c2ccc(-c3ccccc3)cc2)cc(=O)[nH]1)NO` as the compound, how does the IC50 read?
A: 34 nM

Q: Which IC50 does the source give for `CC[C@]1(C)NC(=O)[C@H](CCCCCC(=O)[C@@H](C)OC(C)=O)NC(=O)[C@H]2C[C@H](C)CN2C(=O)[C@H](Cc2ccccc2)NC1=O` here?
A: 10.2 nM

Q: For `CCCCCCCCCCS(=O)(=O)CC(P(=O)(O)O)P(=O)(O)O`, which IC50 is on record?
A: 110 nM

Q: Which IC50 does the source give for `CC[C@]1(C)NC(=O)[C@H](CCCCCC(=O)[C@@H](C)OC(=O)Oc2ccccc2)NC(=O)[C@H]2C[C@H](C)CN2C(=O)[C@H](Cc2ccccc2)NC1=O` here?
A: 11.3 nM

Q: With `COc1cccc(CC(=O)Nc2ccc(C(=O)NO)cc2)c1` as the compound, how does the IC50 read?
A: 560 nM

Target: T1, Bifunctional dihydrofolate reductase-thymidylate synthase (Toxoplasma gondii, UniProt Q07422)
T1 sequence (Q07422 whole entry): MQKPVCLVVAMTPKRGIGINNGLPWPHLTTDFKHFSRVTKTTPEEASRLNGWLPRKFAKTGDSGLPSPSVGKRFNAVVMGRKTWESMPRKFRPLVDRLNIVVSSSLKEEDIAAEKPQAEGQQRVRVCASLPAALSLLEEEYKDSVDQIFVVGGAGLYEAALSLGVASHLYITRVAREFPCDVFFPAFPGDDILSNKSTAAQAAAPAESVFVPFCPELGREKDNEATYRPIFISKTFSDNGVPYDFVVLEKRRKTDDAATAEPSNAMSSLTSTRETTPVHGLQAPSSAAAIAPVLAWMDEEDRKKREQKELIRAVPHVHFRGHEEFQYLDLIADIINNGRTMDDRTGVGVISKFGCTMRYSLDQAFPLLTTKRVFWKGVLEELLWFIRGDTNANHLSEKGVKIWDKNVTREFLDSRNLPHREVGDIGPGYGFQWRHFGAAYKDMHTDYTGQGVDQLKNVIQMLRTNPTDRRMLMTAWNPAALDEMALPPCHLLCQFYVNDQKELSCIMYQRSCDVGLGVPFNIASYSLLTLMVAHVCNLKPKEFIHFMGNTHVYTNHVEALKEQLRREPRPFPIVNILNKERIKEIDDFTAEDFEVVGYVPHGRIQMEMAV
Assay: Inhibition of Toxoplasma gondii thymidylate synthase
Details: not given

Q: Which IC50 does the source give for `C[C@H](NC(=O)OC(C)(C)C)C(=O)OC1O[C@@H]2O[C@@]3(C)CC[C@H]4[C@H](C)CC[C@@H]([C@H]1C)[C@@]24OO3` (some centres undefined) here?
A: 41000 nM

Q: Which IC50 does the source give for `C[C@H]1[C@H](N2CCS(=O)(=O)CC2)O[C@@H]2O[C@@]3(C)CC[C@H]4[C@H](C)CC[C@@H]1[C@@]24OO3` [ARTEMIFONE] here?
A: 120 nM

Q: For `C[C@H]1[C@H](N2CCSCC2)O[C@@H]2O[C@@]3(C)CC[C@H]4[C@H](C)CC[C@@H]1[C@@]24OO3` [ARTEMISIDE], which IC50 is on record?
A: 100 nM

Tested on: not listed separately
Assay: Cytotoxicity against African green monkey Vero cells assessed as reduction in cell viability by MTT assay
Type: toxicity, cell-based
Details: African green monkey (Chlorocebus sabaeus)

Q: For `C=CCSSSC`, which IC50 is on record?
A: 66 µg/mL (≈ 433 µM)

Q: For `CC1=CC[C@H]2[C@H]3[C@@H]1[C@]2(C)CC[C@H]3C(C)C`, which IC50 is on record?
A: 9.94 µg/mL (≈ 48.6 µM)

Q: With `COC(=O)/C=C(\C)CCC=C(C)C` as the compound, how does the IC50 read?
A: 9 µg/mL (≈ 49.4 µM)

Q: With `C=CCSSSCC=C` [ALLITRIDIN] as the compound, how does the IC50 read?
A: 28 µg/mL (≈ 157 µM)

Q: With `CC(C)=CCC/C(C)=C/C=O` [CITRAL] as the compound, how does the IC50 read?
A: 9 µg/mL (≈ 59.1 µM)

Q: With `C=CCSSCC=C` [DIALLYLDISULFIDE] as the compound, how does the IC50 read?
A: 66.9 µg/mL (≈ 457 µM)
